From US11560388B2, “Anthelmintic aza-benzothiophene and aza-benzofuran compounds” (Boehringer Ingelheim Vetmedica GmbH, priority 2019, dated 2023)

Columns and labels:
[1] = system: microfilariae of Dirofilaria immitis; test: Screening of activity against microfilaria of Dirofilaria immitis (motility, dose response); assay type: cell-based; settings: 72 h, read-out: EC50 (motility of the microfilaria)
[2] = system: L1 Haemonchus contortus larvae; test: Screening of activity against Haemonchus contortus (larval development L1 to L3, dose response); assay type: cell-based; settings: 96 h, read-out: EC50 (development of the larvae from L1 to L3)
Haemonchus contortus = test: In vivo efficacy against Haemonchus contortus in Mongolian jird (Meriones unguiculatus)
[3] = system: Trichostrongylus colubriformis; test: In vivo efficacy against Trichostrongylus colubriformis in Mongolian jird (Meriones unguiculatus)
Dirofilaria immitis = test: In vivo efficacy against Dirofilaria immitis in immunodeficient NSG mice; settings: vs control group
[4] = Study 1, jird, 25 mg/kg oral gavage, necropsy 3 days after treatment
[5] = Study #3, NSG mice, 25 mg/kg oral
[6] = Study #2, NSG mice, 25 mg/kg oral
[7] = Study #2, NSG mice, 50 mg/kg oral
[8] = Study 3, jird, 25 mg/kg oral gavage
[9] = Study 1, jird, 10 mg/kg, positive control
[10] = Study 2, jird, 10 mg/kg, positive control
[11] = Study 3, jird, 10 mg/kg, positive control
[12] = Study 4, jird, 10 mg/kg, positive control
[13] = Study 4, jird, 25 mg/kg oral gavage
[14] = Study 2, jird, 25 mg/kg oral gavage
[15] = Study 4, jird, 5 mg/kg oral gavage

## CC(=O)c1c(C(=O)N[C@H]2CCOc3ccc(F)cc32)sc2c(-c3cc(Cl)cc(Cl)c3)ccnc12 [Compound 259-4]
[1]
  EC50: 100 to 10000 nM

## Cc1cc(F)cc(C)c1-c1ccnc2c(C(C)C)c(C(=O)N[C@H]3CCOc4ccccc43)sc12 [Compound 201, N-[(4S)-3,4-dihydro-2H-1-benzopyran-4-yl]-7-(4-fluoro-2,6-dimethylphenyl)-3-isopropylthieno[3,2-b]pyridine-2-carboxamide]
[2]
  EC50: 100 to 10000 nM

## C=C(C)c1c(C(=O)N[C@H]2CCOc3ccccc32)sc2c(-c3cc(Cl)cc(Cl)c3)ccnc12 [Compound 285]
Haemonchus contortus; [4]
  % Reduction H. contortus: 100.0%
[3]; [4]
  % Reduction T. columbriformis: 100.0%

## O=C(N[C@H]1CCOc2ccccc21)c1sc2c(-c3cc(F)cc(F)c3)cccc2c1C1=CCOCC1 [Compound 102-1]
[2]
  EC50: 100 to 10000 nM

## C[C@@H]1C[C@H](C)CN(c2ccnc3c(N4CCOCC4)c(C(=O)N[C@H]4CCOc5ccccc54)sc23)C1 [Compound 217]
[1]
  EC50: 100 to 10000 nM

## CC(C)c1c(C(=O)N[C@H]2CCOc3ccccc32)sc2c(-c3cc(F)cc(F)c3)c(Cl)cnc12 [Compound 310]
[2]
  EC50: < 100 nM
[1]
  EC50: 100 to 10000 nM

## C=C(C)c1c(C(=O)N[C@H]2CCOc3ccccc32)sc2c(-c3cc(F)cc(F)c3)cnnc12 [Compound 239-INT-1]
[2]
  EC50: 100 to 10000 nM

## CC(C)c1c(C(=O)N[C@H]2CCOc3ccccc32)sc2c(C3CCCCC3)ccnc12 [Compound 223]
[2]
  EC50: 100 to 10000 nM
[1]
  EC50: < 10 nM

## CC(C)(O)c1c(C(=O)N[C@H]2CCOc3ccccc32)sc2c(-c3ccnc(Cl)c3)ccnc12 [Compound 268-4]
[2]
  EC50: 100 to 10000 nM

## CC(C)c1c(C(=O)N[C@H]2CCOc3ccc(F)cc32)sc2c(-c3cc(F)cc(F)c3)ccnc12 [Compound 257]
Dirofilaria immitis; [5]
  % Reduction worms: 45%

## O=C(N[C@H]1CCOc2ccccc21)c1sc2c(-c3cc(F)cc(F)c3)ccnc2c1C(F)(F)C(F)(F)F [Compound 238]
[2]
  EC50: 100 to 10000 nM
[1]
  EC50: < 10 nM

## CC(C)(F)c1c(C(=O)N[C@H]2CCOc3ccccc32)sc2c(-c3cc(Cl)cc(Cl)c3)c(F)cnc12 [Compound 263]
Haemonchus contortus; [4]
  % Reduction H. contortus: 100.0%
[3]; [4]
  % Reduction T. columbriformis: 100.0%

## CC(C)(F)c1c(C(=O)N[C@H]2CCOc3ccccc32)sc2c(-c3cc(Cl)cc(Cl)c3)cncc12 [Compound 264, 7-(3,5-dichlorophenyl)-N-[(4S)-3,4-dihydro-2H-1-benzopyran-4-yl]-3-(2-fluoropropan-2-yl)thieno[3,2-c]pyridine-2-carboxamide]
[2]
  EC50: < 100 nM
[1]
  EC50: < 10 nM

## CC(C)(O)c1c(C(=O)N[C@H]2CCOc3ccccc32)sc2c(-c3cc(Cl)cc(Cl)c3)cncc12 [Compound 264-0, 7-(3,5-dichlorophenyl)-N-[(4S)-3,4-dihydro-2H-1-benzopyran-4-yl]-3-(2-hydroxypropan-2-yl)thieno[3,2-c]pyridine-2-carboxamide]
[2]
  EC50: < 100 nM

## CC(C)c1c(C(=O)N[C@H]2CCOc3ccccc32)sc2c(-c3cc(F)cc(F)c3)ccnc12 [Compound 120]
Dirofilaria immitis; [6]
  % Reduction worms: 47%
Dirofilaria immitis; [7]
  % Reduction worms: 33%

## CC(C)(F)c1c(C(=O)N[C@H]2CCOc3ccccc32)sc2c(-c3cc(Cl)cc(Cl)c3)ccnc12 [Compound 212]
Dirofilaria immitis; Study #1, NSG mice, 23 mg/kg (table) oral at Days 1, 15, 30 post-infection
  % Reduction worms: 13%

## CC(C)c1c(C(=O)N[C@H]2CCOc3ccc(F)cc32)sc2c(-c3cc(Cl)cc(Cl)c3)ccnc12 [Compound 211]
Haemonchus contortus; [8]
  % Reduction H. contortus: 100.0%
[3]; [8]
  % Reduction T. columbriformis: 100.0%
Dirofilaria immitis; Study #1, NSG mice, 25 mg/kg oral at Days 1, 15, 30 post-infection
  % Reduction worms: 61%

## c1ccc([C@H]2CN3CCSC3=N2)cc1 [Levamisole, levamisole, reference compound]
Haemonchus contortus; [9]
  % Reduction H. contortus: 98.4%
Haemonchus contortus; [10]
  % Reduction H. contortus: 100.0%
Haemonchus contortus; [11]
  % Reduction H. contortus: 100.0%
Haemonchus contortus; [12]
  % Reduction H. contortus: 99.8%
[3]; [9]
  % Reduction T. columbriformis: 89.1%
[3]; [10]
  % Reduction T. columbriformis: 96.4%
[3]; [11]
  % Reduction T. columbriformis: 100.0%
[3]; [12]
  % Reduction T. columbriformis: 72.2%

## CC(C)c1c(C(=O)N[C@H]2CCOc3ccc(F)cc32)sc2c(-c3cc(F)cc(F)c3)c(F)cnc12 [Compound 260]
Haemonchus contortus; [13]
  % Reduction H. contortus: 23.5%
[3]; [13]
  % Reduction T. columbriformis: 45.8%

## CC(C)(C)c1c(C(=O)N[C@H]2CCOc3ccccc32)sc2c(-c3cc(F)cc(F)c3)ccnc12 [Compound 210]
Haemonchus contortus; [8]
  % Reduction H. contortus: 100.0%
[3]; [8]
  % Reduction T. columbriformis: 100.0%
Dirofilaria immitis; [5]
  % Reduction worms: 55%

## CC(C)c1c(C(=O)N[C@H]2CCOc3ccccc32)sc2c(C3(F)CCCCC3)ccnc12 [Compound 255, N-[(4S)-3,4-dihydro-2H-1-benzopyran-4-yl]-7-(1-fluorocyclohexyl)-3-isopropylthieno[3,2-b]pyridine-2-carboxamide]
[2]
  EC50: 100 to 10000 nM

## CC(C)(O)c1c(C(=O)N[C@H]2CCOc3ccccc32)sc2c(-c3cc(Cl)cc(Cl)c3)c(F)cnc12 [Compound 263-8]
Haemonchus contortus; [14]
  % Reduction H. contortus: 99.8%
Haemonchus contortus; [15]
  % Reduction H. contortus: 99.8%
[3]; [14]
  % Reduction T. columbriformis: 100.0%
[3]; [15]
  % Reduction T. columbriformis: 99.9%
[2]
  EC50: < 100 nM
[1]
  EC50: < 10 nM

## CC(C)c1c(C(=O)N[C@H]2CCOc3ccccc32)sc2c(-c3cccc(F)c3)ccnc12 [Compound 207]
Dirofilaria immitis; [5]
  % Reduction worms: 55%

## CC(C)c1c(C(=O)N[C@H]2CCOc3ccccc32)sc2c(-c3cc(F)cc(F)c3)c(F)cnc12 [Compound 204]
Haemonchus contortus; [8]
  % Reduction H. contortus: 100.0%
Haemonchus contortus; [15]
  % Reduction H. contortus: 50.1%
[3]; [8]
  % Reduction T. columbriformis: 100.0%
[3]; [15]
  % Reduction T. columbriformis: 22.2%
Dirofilaria immitis; Study #1, NSG mice, 50 mg/kg oral at Days 1, 15, 30 post-infection
  % Reduction worms: 65%

## C=C(C)c1c(C(=O)N[C@H]2CCOc3ccccc32)sc2c(-c3cc(F)cc(F)c3)ccnc12 [Compound 119]
[2]
  EC50: 100 to 10000 nM
Dirofilaria immitis; [6]
  % Reduction worms: 67%
Dirofilaria immitis; [7]
  % Reduction worms: 37%

## CC(C)(F)c1c(C(=O)N[C@H]2CCOc3ccc(F)cc32)sc2c(-c3cc(Cl)cc(Cl)c3)ccnc12 [Compound 259]
Haemonchus contortus; [13]
  % Reduction H. contortus: 100.0%
[3]; [13]
  % Reduction T. columbriformis: 99.5%

## O=C(N[C@H]1CCOc2ccccc21)c1sc2c(-c3cc(F)cc(F)c3)ccnc2c1C(F)F [Compound 205]
[2]
  EC50: 100 to 10000 nM
[1]
  EC50: 100 to 10000 nM
